Results from patent publication US8691225B2, “Antibodies against the ectodomain of ErbB3 and uses thereof” (Merrimack Pharmaceuticals, Inc., priority 2007, dated 2014).
Read-outs that look alike come from different tables or passages of the source. One block for each molecule: values may come before it.

Legend:
[1] = system: A549 subcutaneous xenograft tumors; assay: KRAS mutant A549 subcutaneous xenograft tumors; type: in vivo, mouse; settings: Ab #6 300 μg every three days; erlotinib 25 mg/kg every day; taxol 20 mg/kg every 7 days
[2] = system: ACHN (a renal tumor cell line) xenograft tumors; assay: ACHN xenograft combination therapy; type: in vivo, mouse; settings: Ab #6 300 μg IP every three days; erlotinib 25 mg/kg orally once daily
Method: In a first experiment, mice bearing ACHN (a renal tumor cell line) xenograft tumors are prepared by establishing tumors subcutaneously in the flanks of nude mice (Charles River Laboratories).

[3] = system: SKOV3 subcutaneous xenograft tumors; assay: PI3K mutant SKOV3 subcutaneous xenograft tumors; type: in vivo, mouse; settings: Ab #6 300 μg every three days; cisplatin 1.5 mg/kg; dosing after 30 day lag phase
From the text: SKOV3 (SKOV-3) is an ovarian cancer cell line that comprises a mutation that upregulates PI3K expression.

[4] = system: DU145 (a prostate tumor cell line) xenograft tumors; assay: DU145 xenograft combination therapy; type: in vivo, mouse; settings: Ab #6 300 μg IP every three days; taxol 20 mg/kg IP once per week
Method: In a second experiment, mice bearing DU145 (a prostate tumor cell line) xenograft tumors are prepared by establishing tumors subcutaneously in the flanks of nude mice (Charles River Laboratories). […] Again, tumor size is measured twice a week and measurements are used to calculate tumor volume.

[5] = system: ErbB3 phosphorylation in AdrR cells; assay: inhibitor dose response of ligand-induced ErbB3 phosphorylation (ELISA); type: cell-based, human; settings: for IC50: Homo sapiens, 10 min
Method: Phosphorylation of ErbB3 is measured by ELISA (R&D Systems, DYC1769-5, per manufacturers protocol) and IC50 values are determined using Prism (GraphPad Software Inc.).

[6] = target: T1, heregulin binding to ErbB3 on MALME-3M cells (Homo sapiens, UniProt P21860); assay: biotinylated heregulin binding to MALME3M cells by FACS; type: cell-based; settings: 5 μM antibody, 20 nM heregulin EGF
T1 construct: ErbB3 expressed on MALME-3M melanoma cells; host or cells: MALME-3M melanoma cells
Method: After 30 minutes, 50 μl of 40 nM biotinylated heregulin EGF is added to the cells and incubated for another 10 minutes on ice. This yields a final concentration of 5 μM antibody and 20 nM heregulin EGF. Cells are then washed twice with 500 μl BD stain buffer and incubated with 100 μl of a 1:200 dilution of streptavidin-PE (PE=phycoerythrin) (Invitrogen) in BD stain buffer for 45 minutes. Finally, cells are washed twice, resuspended in 300 μl of BD stain buffer and analyzed in a FACSCALIBUR flow cytometer. As a positive control, 1×10^5 MALME3M cells are incubated with 20 nM heregulin EGF for 10 minutes on ice, washed twice and incubated with a 1:200 dilution of streptavidin-PE for 45 minutes. In order to assess background staining from the streptavidin-PE conjugate, 1×10^5 MALME3M cells are incubated with 100 μl of a 1:200 dilution of streptavidin-PE only for 45 minutes.

[7] = target: ErbB3 (Homo sapiens, UniProt P21860); assay: paratope mapping: binding of Ab #6 scFv mutants to ErbB3; settings: scFv format; compared with binding to Protein A
Method: FIG. 36 presents data from paratope mapping experiments.
This format is used to investigate the effect on ErbB3 binding of alanine (and in some cases phenylalanine) substitution mutations in the CDR loops.
All of the mutations are made using standard recombinant DNA techniques and binding of the mutants to ErbB3 is tested using standard screening techniques known in the art.

- IC50 ([5]; 25 nM BTC, read-out: IC50, BTC-induced ErbB3 phosphorylation): 360 nM
- IC50 ([5]; 25 nM HRG, read-out: IC50, HRG-induced ErbB3 phosphorylation): 150 nM
Molecule: CS(=O)(=O)CCNCc1ccc(-c2ccc3ncnc(Nc4ccc(OCc5cccc(F)c5)c(Cl)c4)c3c2)o1 [Lapatinib]

- IC50, BTC-induced ErbB3 phosphorylation ([5]; 25 nM BTC, 10 minutes): did not inhibit
Molecule: Pertuzumab

- Effect on ErbB3 Binding of Ab #6 Mutations [7]: no effect on binding
B2: M1: Ab #6 scFv mutant, H1 loop, Thr28Ala (antibody, chains of the INN, looked up, variant H:T28A, V domains shown)
VH: EVQLLESGGGLVQPGGSLRLSCAASGFAFSHYVMAWVRQAPGKGLEWVSSISSSGGWTLYADSVKGRFTISRDNSKNTLYLQMNSLRAEDTAVYYCTRGLKMATIFDYWGQGTLVTVSS
VL: QSALTQPASVSGSPGQSITISCTGTSSDVGSYNVVSWYQQHPGKAPKLIIYEVSQRPSGVSNRFSGSKSGNTASLTISGLQTEDEADYYCCSYAGSSIFVIFGGGTKVTVL
modifications: scFv

- Effect on ErbB3 Binding of Ab #6 Mutations [7]: no effect on binding
B4: M5: Ab #6 scFv mutant, CDR H1, Tyr32Phe (antibody, chains of the INN, looked up, variant H:Y32F, V domains shown)
VH: EVQLLESGGGLVQPGGSLRLSCAASGFTFSHFVMAWVRQAPGKGLEWVSSISSSGGWTLYADSVKGRFTISRDNSKNTLYLQMNSLRAEDTAVYYCTRGLKMATIFDYWGQGTLVTVSS
VL: QSALTQPASVSGSPGQSITISCTGTSSDVGSYNVVSWYQQHPGKAPKLIIYEVSQRPSGVSNRFSGSKSGNTASLTISGLQTEDEADYYCCSYAGSSIFVIFGGGTKVTVL
modifications: scFv

- Effect on ErbB3 Binding of Ab #6 Mutations [7]: no effect on binding
B5: M3: Ab #6 scFv mutant, CDR H1, His31Ala (antibody, chains of the INN, looked up, variant H:H31A, V domains shown)
VH: EVQLLESGGGLVQPGGSLRLSCAASGFTFSAYVMAWVRQAPGKGLEWVSSISSSGGWTLYADSVKGRFTISRDNSKNTLYLQMNSLRAEDTAVYYCTRGLKMATIFDYWGQGTLVTVSS
VL: QSALTQPASVSGSPGQSITISCTGTSSDVGSYNVVSWYQQHPGKAPKLIIYEVSQRPSGVSNRFSGSKSGNTASLTISGLQTEDEADYYCCSYAGSSIFVIFGGGTKVTVL
modifications: scFv

Further lines, the molecule ahead of its results:

Molecule: C#Cc1cccc(Nc2ncnc3cc(OCCOC)c(OCCOC)cc23)c1 [erlotinib, reference compound]
- tumor growth inhibition [1]: insensitive
- inhibition of tumor growth (tumor volume) [2]: inhibit tumor growth

Molecule: N.N.[Cl][Pt][Cl] [cisplatin]
- tumor growth inhibition [3]: able to inhibit the growth of the SKOV3 xenografts

Molecule: CC(=O)O[C@H]1C(=O)[C@@]2(C)[C@H]([C@H](OC(=O)c3ccccc3)[C@]3(O)C[C@H](OC(=O)[C@H](O)[C@@H](NC(=O)c4ccccc4)c4ccccc4)C(C)=C1C3(C)C)[C@]1(OC(C)=O)CO[C@@H]1C[C@@H]2O [taxol, reference compound]
- tumor growth inhibition [1]: insensitive
- inhibition of tumor growth (tumor volume) [4]: inhibited tumor growth

B1: Ab/Fab #3: a Fab version of Ab #3 (antibody, V domains shown)
VH: EVQLLESGGGLVQPGGSLRLSCAASGFTFSAYNMRWVRQAPGKGLEWVSVIYPSGGATRYADSVKGRFTISRDNSKNTLYLQMNSLRAEDTAVYYCARGYYYYGMDVWGQGTLVTVSS
VL: QSVLTQPPSASGTPGQRVTISCSGSDSNIGRNYIYWYQQFPGTAPKLLIYRNNQRPSGVPDRISGSKSGTSASLAISGLRSEDEAEYHCGTWDDSLSGPVFGGGTKLTVL
- inhibition of heregulin binding to ErbB3 [6]: able to inhibit heregulin binding to ErbB3

B3: M4: Ab #6 scFv mutant, CDR H1, Tyr32Ala (antibody, chains of the INN, looked up, variant H:Y32A, V domains shown)
VH: EVQLLESGGGLVQPGGSLRLSCAASGFTFSHAVMAWVRQAPGKGLEWVSSISSSGGWTLYADSVKGRFTISRDNSKNTLYLQMNSLRAEDTAVYYCTRGLKMATIFDYWGQGTLVTVSS
VL: QSALTQPASVSGSPGQSITISCTGTSSDVGSYNVVSWYQQHPGKAPKLIIYEVSQRPSGVSNRFSGSKSGNTASLTISGLQTEDEADYYCCSYAGSSIFVIFGGGTKVTVL
modifications: scFv
- Effect on ErbB3 Binding of Ab #6 Mutations [7]: large decrease in binding (based on the three groupings shown in FIG. 36)
